Legend:
ORL1 receptor = target: T1, ORL1 receptor (Homo sapiens, UniProt P41146); assay: ORL1 receptor binding assay with 3H-nociceptin/orphanin FQ (WGA-SPA beads); conditions: c=1 μM test substance; 0.5 nM 3H-nociceptin/orphanin FQ; membranes of recombinant CHO-ORL1 cells
T1 construct: expressed in transfected cells; host or cells: CHO (recombinant CHO-ORL1 cells), membranes
Method in brief: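 Affinity given as nanomolar Ki or as % inhibition at c=1 μM. Membranes of CHO cells expressing recombinant ORL1 (20 μg protein) were incubated one hour at room temperature with 0.5 nM 3H-nociceptin/orphanin FQ in Hepes 50 mM, pH 7.4, plus MgCl2 and EDTA; bound ligand detected by SPA bead scintillation counting.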

human μ-opiate receptor = target: T2, human μ-opiate receptor (Homo sapiens, UniProt P35372); assay: μ-opiate receptor binding assay with [3H] naloxone (WGA-SPA beads); conditions: 1 μmol/l test substance, 1 nmol/l [3H] naloxone, CHO-K1 cell membranes expressing human μ-opiate receptor
T2 construct: purchased NEN, Zaventem, Belgium RB-HOM; host or cells: CHO-K1 cells (membrane preparation)
Method in brief: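 Scintillation proximity readout: [3H]naloxone (1 nmol/l) displacement measured after 90 min, room temperature, on human μ-receptor CHO-K1 membranes in Tris-HCl/azide/BSA buffer; 25 μmol/l naloxone defined non-specific binding. Values are % specific-binding inhibition at 1 μmol/l, or Ki from IC50 (Cheng-Prusoff).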

T2 sequence (P35372 whole entry): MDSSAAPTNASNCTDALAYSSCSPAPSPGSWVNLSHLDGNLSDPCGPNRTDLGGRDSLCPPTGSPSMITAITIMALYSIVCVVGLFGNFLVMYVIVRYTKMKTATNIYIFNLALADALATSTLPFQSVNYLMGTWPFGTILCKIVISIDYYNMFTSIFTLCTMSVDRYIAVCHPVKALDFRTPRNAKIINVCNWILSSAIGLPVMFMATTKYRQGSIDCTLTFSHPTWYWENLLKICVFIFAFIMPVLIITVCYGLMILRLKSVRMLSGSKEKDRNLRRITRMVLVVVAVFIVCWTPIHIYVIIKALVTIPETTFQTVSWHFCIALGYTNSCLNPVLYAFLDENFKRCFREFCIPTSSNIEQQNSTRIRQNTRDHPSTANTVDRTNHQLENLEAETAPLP
T1 sequence (P41146 whole entry): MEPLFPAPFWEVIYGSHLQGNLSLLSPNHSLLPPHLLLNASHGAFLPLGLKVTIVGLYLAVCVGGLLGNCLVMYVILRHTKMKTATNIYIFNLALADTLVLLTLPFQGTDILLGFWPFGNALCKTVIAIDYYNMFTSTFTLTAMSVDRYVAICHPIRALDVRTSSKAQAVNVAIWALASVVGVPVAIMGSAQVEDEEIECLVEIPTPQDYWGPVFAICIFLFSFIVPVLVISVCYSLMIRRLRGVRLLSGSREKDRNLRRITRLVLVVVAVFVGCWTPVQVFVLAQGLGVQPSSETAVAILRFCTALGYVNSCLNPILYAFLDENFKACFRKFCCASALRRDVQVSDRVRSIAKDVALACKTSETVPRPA

| SMILES | inhibition at 1 µM (ORL1 receptor) | inhibition at 1 µM (human μ-opiate receptor) | % Inhibition (ORL1) at 1 μM (ORL1 receptor) | % Inhibition (μ) at 1 μM (human μ-opiate receptor; 1 µM) | % Inhibition (μ) at 1 μM (human μ-opiate receptor) |
| --- | --- | --- | --- | --- | --- |
| CC(C)C(CC(=O)N(C)C(C(=O)N1CCC(c2cccs2)(N(C)C)CC1)c1ccccc1)c1c[nH]c2ccccc12 (stereo not shown) [Example 105, N-(2-(4-(dimethylamino)-4-(thiophen-2-yl)piperidin-1-yl)-2-oxo-1-phenylethyl)-3-(1H-indol-3-yl)-N,4-dimethylpentanamide] | 63% | 91% | – | – | – |
| CN(CCCN1CCC(c2cccs2)(N(C)C)CC1)C(=O)c1ccc2cc[nH]c2c1 [Example 17, N-(3-(4-(Dimethylamino)-4-(thiophen-2-yl)piperidin-1-yl)propyl)-N-methyl-1H-indole-6-carboxamide] | 38% | 70% | – | – | – |
| CN(C)C1(c2cccs2)CCN(CCNCc2c[nH]c3ccc(Cl)cc23)CC1 [Example 72, 1-(2-((5-Chloro-1H-indol-3-yl)methylamino)ethyl)-N,N-dimethyl-4-(thiophen-2-yl)piperidin-4-amine] | – | – | 95% | 101% | – |
| CCCCC1(N(C)C)CCN(CCN(C)C(=O)CC(C)c2c[nH]c3ccccc23)CC1 (stereo not shown) [Example 58, N-(2-(4-Butyl-4-(dimethylamino)piperidin-1-yl)ethyl)-3-(1H-indol-3-yl)-N-methylbutanamide] | 20% | 77% | – | – | – |
| Cc1[nH]c2ccccc2c1CNC(CC(=O)N1CCC(c2cccs2)(N(C)C)CC1)c1ccccc1 (stereo not shown) [Example 168, 1-(4-(dimethylamino)-4-(thiophen-2-yl)piperidin-1-yl)-3-((2-methyl-1H-indol-3-yl)methylamino)-3-phenylpropan-1-one] | 73% | 92% | – | – | – |
| Cc1[nH]c2ccccc2c1CNCCC(=O)N1CCC(c2ccccc2)(N(C)C)CC1 [Example 167, 1-(4-(dimethylamino)-4-phenylpiperidin-1-yl)-3-((2-methyl-1H-indol-3-yl)methylamino)propan-1-one] | 65% | 86% | – | – | – |
| CN(CCN1CCC(c2ccccc2)(N(C)C)CC1)C(=O)c1c[nH]c2ccccc12 [Example 12, N-(2-(4-(Dimethylamino)-4-phenylpiperidin-1-yl)ethyl)-N-methyl-1H-indole-3-carboxamide] | 67% | 84% | – | – | – |
| COc1ccc2[nH]c(C(=O)N(C)CCCN3CCC(c4ccccc4)(N(C)C)CC3)cc2c1 [Example 66, N-(3-(4-(Dimethylamino)-4-phenylpiperidin-1-yl)propyl)-5-methoxy-N-methyl-1H-indole-2-carboxamide] | 33% | 71% | – | – | – |
| CN(C)C1(c2cccs2)CCN(CCNC(=O)CCc2c[nH]c3ccccc23)CC1 [Example 5, N-(2-(4-(Dimethylamino)-4-(thiophen-2-yl)piperidin-1-yl)ethyl)-3-(1H-indol-3-yl)propanamide] | 89% | 98% | – | – | – |
| CN(CCN1CCC(c2ccccc2)(N(C)C)CC1)Cc1c[nH]c2ccc(Br)cc12 [Example 185, 1-(2-(((5-bromo-1H-indol-3-yl)methyl)(methyl)amino)ethyl)-N,N-dimethyl-4-phenylpiperidin-4-amine] | 91% | 95% | – | – | – |
| CN(C)C1(c2ccccc2)CCN(C(=O)CCNC(=O)C2CCCc3c2[nH]c2ccc(Cl)cc32)CC1 (stereo not shown) [Example 107, 6-chloro-N-(3-(4-(dimethylamino)-4-phenylpiperidin-1-yl)-3-oxopropyl)-2,3,4,9-tetrahydro-1H-carbazole-1-carboxamide] | 63% | 52% | – | – | – |
| CC(C)C(CC(=O)NCCC(=O)N1CCC(c2ccccc2)(N(C)C)CC1)c1c[nH]c2ccccc12 (stereo not shown) [Example 84, N-(3-(4-(dimethylamino)-4-phenylpiperidin-1-yl)-3-oxopropyl)-3-(1H-indol-3-yl)-4-methylpentanamide] | 95% | 100% | – | – | – |
| CC(C)C(C(=O)N1CCC(c2ccccc2)(N(C)C)CC1)N(C)C(=O)Cc1c[nH]c2ccc(Br)cc12 (stereo not shown) [Example 83, 2-(5-bromo-1H-indol-3-yl)-N-(1-(4-(dimethylamino)-4-phenylpiperidin-1-yl)-3-methyl-1-oxobutan-2-yl)-N-methylacetamide] | 95% | 84% | – | – | – |
| CCCCC1(N(C)C)CCN(CCN(C)C(=O)Cc2c[nH]c3cc(F)ccc23)CC1 [Example 44, N-(2-(4-Butyl-4-(dimethylamino)piperidin-1-yl)ethyl)-2-(6-fluoro-1H-indol-3-yl)-N-methylacetamide] | – | – | 50% | – | 92% |
| CN(CCN1CCC(c2ccccc2)(N(C)C)CC1)C(=O)Cc1c[nH]c2cc(F)ccc12 [Example 27, N-(2-(4-(Dimethylamino)-4-phenylpiperidin-1-yl)ethyl)-2-(6-fluoro-1H-indol-3-yl)-N-methylacetamide] | 93% | 98% | – | – | – |
| CC(C)C(CC(=O)N1CC(C(=O)N2CCC(c3ccccc3)(N(C)C)CC2)c2ccccc21)c1c[nH]c2ccccc12 (stereo not shown) [Example 89, 1-(3-(4-(dimethylamino)-4-phenylpiperidine-1-carbonyl)indolin-1-yl)-3-(1H-indol-3-yl)-4-methylpentan-1-one] | 91% | 94% | – | – | – |
| CN(C)C1(c2cccs2)CCN(C(=O)CNC(=O)C2CCCc3c2[nH]c2ccc(Cl)cc32)CC1 (stereo not shown) [Example 116, 6-chloro-N-(2-(4-(dimethylamino)-4-(thiophen-2-yl)piperidin-1-yl)-2-oxoethyl)-2,3,4,9-tetrahydro-1H-carbazole-1-carboxamide] | 50% | 83% | – | – | – |
| CN(CCCN1CCC(c2ccccc2)(N(C)C)CC1)C(=O)c1cc2cc(F)ccc2[nH]1 [Example 53, N-(3-(4-(Dimethylamino)-4-phenylpiperidin-1-yl)propyl)-5-fluoro-N-methyl-1H-indole-2-carboxamide] | 73% | 90% | – | – | – |
| CN(CCN1CCC(c2ccccc2)(N(C)C)CC1)C(=O)c1cccc2c1ccn2C [Example 31, N-(2-(4-(Dimethylamino)-4-phenylpiperidin-1-yl)ethyl)-N,1-dimethyl-1H-indole-4-carboxamide] | 35% | 88% | – | – | – |
| CN(C)C1(c2ccccc2)CCN(C(=O)CCNCc2c[nH]c3ccccc23)CC1 [Example 139, 3-((1H-indol-3-yl)methylamino)-1-(4-(dimethylamino)-4-phenylpiperidin-1-yl)propan-1-one] | 74% | 90% | – | – | – |
| CN(C)C1(c2cccs2)CCN(C(=O)CNCc2cccc3cc[nH]c23)CC1 [Example 172, 2-((1H-indol-7-yl)methylamino)-1-(4-(dimethylamino)-4-(thiophen-2-yl)piperidin-1-yl)ethanone] | 67% | 96% | – | – | – |
| CN(CCN1CCC(c2ccccc2)(N(C)C)CC1)Cc1c[nH]c2ccccc12 [Example 186, 1-(2-(((1H-indol-3-yl)methyl)(methy)amino)ethyl)-N,N-dimethyl-4-phenylpiperidin-4-amine] | – | – | 88% | 102% | – |
| CN(CCCN1CCC(c2cccs2)(N(C)C)CC1)C(=O)CCc1cn(C)c2ccccc12 [Example 13, N-(3-(4-(Dimethylamino)-4-(thiophen-2-yl)piperidin-1-yl)propyl)-N-methyl-3-(1-methyl-1H-indol-3-yl)propanamide] | 35% | 80% | – | – | – |
| CCCCC1(N(C)C)CCN(CCN(C)C(=O)Cc2c[nH]c3cc(F)ccc23)CC1 [Example 112, N-(2-(4-butyl-4-(dimethylamino)piperidin-1-yl)ethyl)-2-(6-fluoro-1H-indol-3-yl)-N-methylacetamide] | 59% | 92% | – | – | – |
| COc1ccc2[nH]c(C(=O)NCCC(=O)N3CCC(c4ccccc4)(N(C)C)CC3)cc2c1 [Example 129, N-(3-(4-(dimethylamino)-4-phenylpiperidin-1-yl)-3-oxopropyl)-5-methoxy-1H-indole-2-carboxamide] | 37% | 73% | – | – | – |
| CN(C)C1(c2ccccc2)CCN(C(=O)CCNCc2cccc3cc[nH]c23)CC1 [Example 171, 3-((1H-indol-7-yl)methylamino)-1-(4-(dimethylamino)-4-phenylpiperidin-1-yl)propan-1-one] | 73% | 97% | – | – | – |
| Cc1c(CN(C)CCN2CCC(c3ccccc3)(N(C)C)CC2)c2ccccc2n1C [Example 79, 1-(2-(((1,2-Dimethyl-1H-indol-3-yl)methyl)(methyl)amino)ethyl)-N,N-dimethyl-4-phenylpiperidin-4-amine] | – | – | 83% | 101% | – |
| CC(CC(=O)NCCC(=O)N1CCC(c2ccccc2)(N(C)C)CC1)c1c[nH]c2ccccc12 (stereo not shown) [Example 92, N-(3-(4-(dimethylamino)-4-phenylpiperidin-1-yl)-3-oxopropyl)-3-(1H-indol-3-yl)butanamide] | 88% | 93% | – | – | – |
| CN(CCCN1CCC(c2cccs2)(N(C)C)CC1)C(=O)Cc1c[nH]c2cc(F)ccc12 [Example 26, N-(3-(4-(Dimethylamino)-4-(thiophen-2-yl)piperidin-1-yl)propyl)-2-(6-fluoro-1H-indol-3-yl)-N-methylacetamide] | 59% | 88% | – | – | – |
